According to ChEMBL document CHEMBL1151567, “Synthesis and anti HIV-1 activity of new thiadiazepindioxides” (Bioorg Med Chem Lett, 1995):

Experiments:
[1] = test system: C8166; assay: Antiviral activity was evaluated by inhibition of HIV-1 replication in CD4+ lymphoblastoid cell line infected with HIV/IIIB strain; type: functional, cell-based; conditions: Homo sapiens
[2] = test system: C8166; assay: Cytotoxic activity was evaluated in CD4+ lymphoblastoid cell line; type: functional; conditions: Homo sapiens
[3] = test system: C8166; assay: Ratio of CC50 to that of IC50 was determined; type: functional

SMILES	IC50 [1] [µM]	CC50 [2] [µM]	Selectivity index [3]
Cc1cc2c(cc1Cl)Nc1ncccc1N(C)S2(=O)=O	> 300		
CCN1c2ccccc2S(=O)(=O)N(C)c2cccnc21	> 300		
CN1c2cccnc2Nc2ccccc2S1(=O)=O	> 300		
Cc1cc2c(cc1C)N(C)S(=O)(=O)c1cccnc1N2	4	> 125	>31
CCN1c2cc(Cl)c(C)cc2S(=O)(=O)N(C)c2cccnc21	48	> 60	>1
CN1c2cccnc2Nc2ncccc2S1(=O)=O	7	> 125	>17
CCN1c2ncccc2N(C)S(=O)(=O)c2cccnc21	> 300	300	<1
Cc1ccnc2c1NC(=O)c1cccnc1N2C1CC1 [NEVIRAPINE]	0.04	321	8025

Second part, led by results:

IC50 [1] [µM]	SMILES	CC50 [2] [µM]	Selectivity index [3]
0.6	Cc1cc2c(cc1C)N(C)S(=O)(=O)C1=CC=CN(C(C)C)C1=N2	> 30	>50
0.0015	CC(C)=CCN1Cc2cc(Cl)cc3[nH]c(=S)n(c23)C[C@@H]1C	34	22600
3.7	CCN1C=CC=C2C1=Nc1ccccc1S(=O)(=O)N2C	80	22
0.28	CCN1C=CC=C2C1=Nc1cc(Cl)c(C)cc1S(=O)(=O)N2C	12	42
0.33	CCN1C=CC=C2C1=Nc1cc(C)c(C)cc1N(C)S2(=O)=O	> 30	>90
0.032	Cc1cc2c(cc1C)N(C)S(=O)(=O)c1cccnc1N2C(C)C	> 60	>1875
0.04	CCN1c2cc(C)c(C)cc2N(C)S(=O)(=O)c2cccnc21	150	3750
1	O=c1[nH]cnc2c1ncn2[C@H]1CC[C@@H](CO)O1 [DIDANOSINE]	9000	9000
0.004	Cc1cn([C@H]2C[C@H](N=[N+]=[N-])[C@@H](CO)O2)c(=O)[nH]c1=O [ZIDOVUDINE]	1400	350000
